# Experimental data as given in patent publication EP4818158A1, “BIARYL COMPOUND” (Kissei Pharmaceutical Co., Ltd., priority 2023, dated 2025).
# Target: T1, human TSHR (Homo sapiens, UniProt P16473)
# T1 construct: expressed in transfected cells
# Assay: Antagonist activity using TSH-induced cAMP generation in human TSHR-stably expressing CHO cells
# Assay type: cell-based
# Settings: human TSH 50 ng/mL
# Procedure: Measurement of antagonist activity using TSH-induced cAMP generation in human TSHR-stably expressing CHO cells as an indicator
# The gene sequence (reference number: NM_000369.2) of a human TSHR was inserted into multiple cloning sites of pcDNA3.1 (+). Prepared plasmid vectors were introduced into CHO cells using a lipofection method, and human TSHR-stably expressing CHO cells were established. Obtained cells were seeded in a 96-well poly-D-lysine-coated plate at 5 × 10^4 cells/well and cultured in an F12 culture medium containing 10%FBS, 400 µg/mL of G418, 50 U/mL of penicillin, and 50 µg/mL of streptomycin under conditions of 37°C and 5% CO2 for one day. After the culture medium was removed, the cells were washed twice with 100 µL of an assay buffer solution (Hanks' Balanced Salt Solution containing 20 mM HEPES and 1 mM IBMX) per well. 30 µL of a test compound-containing assay buffer solution was added to the well and incubated at room temperature for 15 minutes. Next, 30 µL of an assay buffer solution containing human TSH (final concentration: 50 ng/mL, R&D Systems, Inc.) was added thereto and incubated at 37°C for one hour. A supernatant was removed, a Lysis and Detection Buffer 2(Cisbio) was added thereto, and the mixture was incubated at room temperature for one hour to prepare a cell lysate. According to the instruction manual of a cAMP Gs HiRange kit (Cisbio), the cell lysate, d2-labeled cAMP, and anti-cAMP Europium Cryptate labeled antibodies (Cisbio) were reacted together in a 384-well white microplate. Next, fluorescence intensity ratios (measurement wavelengths: 665 nm/620 nm) were measured using a multi-plate reader (PHERAstar FSX, BMG LABTECH, Japan). The fluorescence intensity ratio of each sample was converted to a cAMP content using a standard curve. The cAMP content was converted as a percentage of the control value to calculate a cAMP generation rate. The cAMP generation rates were plotted against the test compound concentrations using Prism (Graph Pad Software Inc.) to calculate IC50 values. The IC50's of the individual test compounds are shown in the above tables. In the tables, IC50 < 0.3 µM was denoted as A, and 0.3 µM ≤ IC50 < 30 µM was denoted as B. Cases where the IC50 values were not calculated for test compounds from which activity was recognized are denoted as C.
# T1 sequence (P16473 21-764): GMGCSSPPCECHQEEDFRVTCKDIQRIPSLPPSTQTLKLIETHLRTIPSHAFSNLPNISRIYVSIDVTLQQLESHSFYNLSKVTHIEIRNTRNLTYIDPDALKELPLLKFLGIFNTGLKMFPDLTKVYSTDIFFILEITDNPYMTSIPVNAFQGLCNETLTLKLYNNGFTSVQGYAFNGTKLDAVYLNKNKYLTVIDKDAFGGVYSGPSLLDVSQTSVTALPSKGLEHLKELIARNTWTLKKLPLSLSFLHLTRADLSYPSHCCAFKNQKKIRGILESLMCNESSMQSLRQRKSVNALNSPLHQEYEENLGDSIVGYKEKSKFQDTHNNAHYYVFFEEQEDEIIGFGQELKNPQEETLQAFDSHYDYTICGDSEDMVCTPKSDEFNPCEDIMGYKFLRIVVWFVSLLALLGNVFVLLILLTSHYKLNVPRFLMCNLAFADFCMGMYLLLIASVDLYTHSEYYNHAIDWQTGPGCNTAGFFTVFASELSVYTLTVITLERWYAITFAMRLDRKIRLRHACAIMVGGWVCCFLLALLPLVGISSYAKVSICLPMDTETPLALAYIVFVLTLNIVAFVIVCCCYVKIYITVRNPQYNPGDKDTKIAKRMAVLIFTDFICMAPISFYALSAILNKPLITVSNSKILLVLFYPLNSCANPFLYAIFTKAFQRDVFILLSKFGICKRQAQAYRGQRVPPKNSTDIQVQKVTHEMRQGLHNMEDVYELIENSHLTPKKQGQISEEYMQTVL
row,IC50 [nM],Compound
1,< 300,"CC(C)(C)OC(=O)Nc1ccc(-c2cccnc2CCC(N)=O)c(Cc2ccccc2C#N)c1F [Example A-39, tert-Butyl (4-(2-(3-amino-3-oxopropyl)pyridin-3-yl)-3-(2-cyanobenzyl)-2-fluorophenyl)carbamate]"
2,300 to 30000,"CC(C)(C)OC(=O)Nc1ccc(-c2cccnc2CCC(N)=O)c(Cc2ccccc2S(C)(=O)=O)c1F [Example A-40, tert-Butyl (4-(2-(3-amino-3-oxopropyl)pyridin-3-yl)-2-fluoro-3-(2-(methylsulfonyl)benzyl)phenyl)carbamate]"
3,< 300,"CC(C)(C)OC(=O)Nc1ccc(-c2cccnc2CNC(N)=O)c(Oc2ccccc2)c1F [Example B-1, tert-Butyl (2-fluoro-3-phenoxy-4-(2-(ureidomethyl)pyridin-3-yl)phenyl)carbamate]"
4,< 300,"CC(C)(C)OC(=O)Nc1ccc(-c2cccnc2CNC(N)=O)c(Oc2ccccc2F)c1F [Example B-2, tert-Butyl (2-fluoro-3-(2-fluorophenoxy)-4-(2-(ureidomethyl)pyridin-3-yl)phenyl)carbamate]"
5,< 300,"C[C@H](OC(=O)Nc1ccc(-c2cccnc2CNC(N)=O)c(Oc2ccccc2F)c1F)C(F)(F)F [Example B-3, (S)-1,1,1-Trifluoropropan-2-yl (2-fluoro-3-(2-fluorophenoxy)-4-(2-(ureidomethyl)pyridin-3-yl)phenyl)carbamate]"
6,< 300,NC(=O)NCc1ncccc1-c1ccc(NC(=O)OCC2CC(F)(F)C2)c(F)c1Oc1ccccc1F [Example B-4]
7,300 to 30000,NC(=O)NCc1ncccc1-c1ccc(NC(=O)OC2CC(F)(F)C2)c(F)c1Oc1ccccc1F [Example B-5]
8,< 300,"CC(C)(C)OC(=O)Nc1ccc(-c2cccnc2CCC(N)=O)c(Oc2ccccc2F)c1F [Example B-6, tert-Butyl (4-(2-(3-amino-3-oxopropyl)pyridin-3-yl)-2-fluoro-3-(2-fluorophenoxy)phenyl)carbamate]"
9,> 30000,"CC(O)c1ncccc1-c1ccc(NC(=O)OC(C)(C)C)cc1Oc1ccccc1 (stereo not drawn) [Example B-7, tert-Butyl (4-(2-(1-hydroxyethyl)pyridine-3-yl)-3-phenoxyphenyl)carbamate]"
10,< 300,"CC(C)(C)OC(=O)Nc1ccc(-c2ccnnc2CNC(N)=O)c(Cc2ccccc2F)c1F [Example C-1, tert-Butyl (2-fluoro-3-(2-fluorobenzyl)-4-(3-(ureidomethyl)pyridazin-4-yl)phenyl)carbamate]"
11,< 300,"C[C@H](OC(=O)Nc1ccc(-c2ccnnc2CNC(N)=O)c(Cc2ccccc2F)c1F)C(F)(F)F [Example C-2, (S)-1,1,1-Trifluoropropan-2-yl (2-fluoro-3-(2-fluorobenzyl)-4-(3-(ureidomethyl)pyridazin-4-yl)phenyl)carbamate]"
12,300 to 30000,"CC1(OC(=O)Nc2ccc(-c3ccnnc3CNC(N)=O)c(Cc3ccccc3F)c2F)CC1 [Example C-3, 1-Methylcyclopropyl (2-fluoro-3-(2-fluorobenzyl)-4-(3-(ureidomethyl)pyridazin-4-yl)phenyl)carbamate]"
13,< 300,"CC(C)(C)OC(=O)Nc1ccc(-c2ccnnc2CCC(N)=O)c(Cc2ccccc2F)c1F [Example C-4, tert-Butyl (4-(3-(3-amino-3-oxopropyl)pyridazin-4-yl)-2-fluoro-3-(2-fluorobenzyl)phenyl)carbamate]"
14,< 300,"C[C@H](OC(=O)Nc1ccc(-c2ccnnc2CCC(N)=O)c(Cc2ccccc2F)c1F)C(F)(F)F [Example C-5, (S)-1,1,1-Trifluoropropan-2-yl (4-(3-(3-amino-3-oxopropyl)pyridazin-4-yl)-2-fluoro-3-(2-fluorobenzyl)phenyl)carbamate]"
15,< 300,"C[C@@H](OC(=O)Nc1ccc(-c2ccnnc2CCC(N)=O)c(Cc2ccccc2F)c1F)C1CC1 [Example C-6, (R)-1-Cyclopropylethyl (4-(3-(3-amino-3-oxopropyl)pyridazin-4-yl)-2-fluoro-3-(2-fluorobenzyl)phenyl)carbamate]"
16,300 to 30000,"NC(=O)CCc1nnccc1-c1ccc(NC(=O)O[C@H]2C[C@H](F)C2)c(F)c1Cc1ccccc1F [Example C-7, trans-3-Fluorocyclobutyl (4-(3-(3-amino-3-oxopropyl)pyridazin-4-yl)-2-fluoro-3-(2-fluorobenzyl)phenyl)carbamate]"
17,< 300,NC(=O)CCc1nnccc1-c1ccc(NC(=O)OC2CC(F)(F)C2)c(F)c1Cc1ccccc1F [Example C-8]

row,IC50 [nM],Compound
1,300 to 30000,"Cc1nnccc1-c1ccc(NC(=O)OC(C)(C)C)c(F)c1Cc1ccccc1F [Example C-9, tert-Butyl (2-fluoro-3-(2-fluorobenzyl)-4-(3-methylpyridazin-4-yl)phenyl)carbamate]"
2,300 to 30000,NC(=O)NCc1nnccc1-c1ccc(NC(=O)OC2(C3CC3)CC2)c(F)c1Cc1ccccc1F [Example C-10]
3,300 to 30000,"CC(C)(C)OC(=O)Nc1ccc(-c2ccnnc2CNC(N)=O)c(Oc2ccccc2F)c1F [Example D-1, tert-Butyl (2-fluoro-3-(2-fluorophenoxy)-4-(3-(ureidomethyl)pyridazin-4-yl)phenyl)carbamate]"
4,300 to 30000,"C[C@H](OC(=O)Nc1ccc(-c2ccnnc2CNC(N)=O)c(Oc2ccccc2F)c1F)C(F)(F)F [Example D-2, (S)-1,1,1-Trifluoropropan-2-yl (2-fluoro-3-(2-fluorophenoxy)-4-(3-(ureidomethyl)pyridazin-4-yl)phenyl)carbamate]"
5,< 300,"CC(C)(C)OC(=O)Nc1ccc(-c2ccnnc2CCC(N)=O)c(Oc2ccccc2F)c1F [Example D-3, tert-Butyl (4-(3-(3-amino-3-oxopropyl)pyridazin-4-yl)-2-fluoro-3-(2-fluorophenoxy)phenyl)carbamate]"
6,< 300,"C[C@H](OC(=O)Nc1ccc(-c2ccnnc2CCC(N)=O)c(Oc2ccccc2F)c1F)C(F)(F)F [Example D-4, (S)-1,1,1-Trifluoropropan-2-yl (4-(3-(3-amino-3-oxopropyl)pyridazin-4-yl)-2-fluoro-3-(2-fluorophenoxy)phenyl)carbamate]"
7,< 300,"Cc1ccccc1C(=O)c1c(-c2cccnc2CNC(N)=O)ccc(NC(=O)OC(C)(C)C)c1F [Example E-1, tert-Butyl (2-fluoro-3-(2-methylbenzoyl)-4-(2-(ureidomethyl)pyridin-3-yl)phenyl)carbamate]"
8,300 to 30000,CC(C)(C)OC(=O)Nc1ccc(-c2cccnc2CNC(N)=O)c(C(=O)c2ccccc2C(F)(F)F)c1F [Example E-2]
9,< 300,"CC(C)(C)OC(=O)Nc1ccc(-c2cccnc2CCC(N)=O)c(C(=O)c2ccccc2F)c1F [Example E-3, tert-Butyl (4-(2-(3-amino-3-oxopropyl)pyridin-3-yl)-2-fluoro-3-(2-fluorobenzoyl)phenyl)carbamate]"
10,< 300,"C[C@H](OC(=O)Nc1ccc(-c2cccnc2CCC(N)=O)c(C(=O)c2ccccc2F)c1F)C(F)(F)F [Example E-4, (S)-1,1,1-Trifluoropropan-2-yl (4-(2-(3-amino-3-oxopropyl)pyridin-3-yl)-2-fluoro-3-(2-fluorobenzoyl)phenyl)carbamate]"
11,< 300,"C[C@H](OC(=O)Nc1ccc(-c2cccnc2CCC(N)=O)c(C(=O)c2ccccc2F)c1F)C1CC1 [Example E-5, (S)-1-Cyclopropylethyl (4-(2-(3-amino-3-oxopropyl)pyridin-3-yl)-2-fluoro-3-(2-fluorobenzoyl)phenyl)carbamate]"
12,300 to 30000,NC(=O)CCc1ncccc1-c1ccc(NC(=O)OC2CC(F)(F)C2)c(F)c1C(=O)c1ccccc1F [Example E-6]
13,< 300,NC(=O)CCc1ncccc1-c1ccc(NC(=O)OCC2CC(F)(F)C2)c(F)c1C(=O)c1ccccc1F [Example E-7]
14,< 300,"CC(C)(C)OC(=O)Nc1ccc(-c2cccnc2CCC(N)=O)c(C(=O)c2ccccc2C(F)(F)F)c1F [Example E-8, tert-Butyl (4-(2-(3-amino-3-oxopropyl)pyridin-3-yl)-2-fluoro-3-(2-(trifluoromethyl)benzoyl)phenyl)carbamate]"
15,300 to 30000,"NC(=O)CCc1ncccc1-c1ccc(NC(=O)OC2CC(F)(F)C2)c(F)c1C(=O)c1ccccc1C(F)(F)F [Example E-9, 3,3-Difluorocyclobutyl (4-(2-(3-amino-3-oxopropyl)pyridin-3-yl)-2-fluoro-3-(2-(trifluoromethyl)benzoyl)phenyl)carbamate]"
16,300 to 30000,"CC(C)(C)OC(=O)Nc1ccc(-c2cccnc2CNC(N)=O)c(Cc2ncccc2F)c1F [Example F-1, tert-Butyl (2-fluoro-3-((3-fluoropyridin-2-yl)methyl)-4-(2-(ureidomethyl)pyridin-3-yl)phenyl)carbamate]"
